Laboratory results as given in patent US12414940B2, “Method of treating malignant tumor by azabicyclic compound” (TAIHO PHARMACEUTICAL CO., LTD., priority 2018, dated 2025).

Columns and labels:
[1] = test system: patients with local progressive unresectable or metastatic GIST; test: Study in GIST patients: safety, tolerability and eye disorder; format: in vivo, human; conditions: 160 mg/body/day oral
Experimental: Purpose: In order to evaluate the effectiveness and safety, etc. of compound 1, this study was conducted for the purpose of evaluating the effectiveness and safety, etc. of the compound 1, targeting patients with local progressive unresectable or metastatic GIST who received the administration of imatinib, sunitinib or regorafenib in the past.
From the results of the study of Example 1, this study was carried out according to a schedule involving administration for 5 consecutive days and 2-day withdrawal period. The daily dose of the compound 1 was 160 mg/body/day for oral administration. One cycle was set to 21 days. The administration of the compound 1 was continued until the end date of the clinical trial or any of predetermined criterion for discontinuation were applicable.
For the evaluation of eye disorder, interview, visual acuity examination (corrected), intraocular pressure measurement, fundus examination, slit-lamp microscopy, optical coherence tomography (OCT), and color perception examination were carried out at the time of a baseline within 14 days before enrollment and at the completion of administration of the study drug.
Interview, visual acuity examination (corrected), intraocular pressure measurement, fundus examination, optical coherence tomography (OCT), slit-lamp microscopy, and color perception examination were further carried out as much as possible every 12 weeks after the start of administration of the study drug and every 24 weeks on week 48 or later (within ±7 days).
In addition to the determined ophthalmologic examination described above, ophthalmologic examination was appropriately carried out when eye problems were found by regular interview by clinical investigators or by declaration from patients themselves.

solid cancer patients = test: Phase I study in solid cancer patients: tumor response by RECIST Guideline Version 1.1; format: in vivo, human
Experimental: Purpose: This study was conducted for the purpose of determining a maximum tolerated dose (MTD) and estimating a recommended dose (RD) and an administration method when compound 1 was administered with one cycle set to 21 days targeting solid cancer patients, and of evaluating safety and observing an antitumor effect when the compound 1 was administered with one cycle set to 21 days targeting the patients, for example.
Method: The compound 1 was repeatedly administered between meals once a day in Step 1, and orally administered between meals every other day in Step 2. In Step 1, the initial dose was set to 4.8 mg/m^2 (level 1), and the dose of the compound 1 at each level was determined depending on a body surface area. The initial dose of Step 2 (level 1 of Step 2) was set to MTD (mg/m^2/day) of Step 1. The study was continued until the disease progressed or an intolerable adverse event occurred.
After determination of MTD for once-daily administration, administration was performed by once-daily administration, by alternate-day administration (repeated administration at cycles each involving one-day administration and one-day withdrawal period on the next day), or by a schedule involving administration for 5 consecutive days and 2-day withdrawal period, and evaluation was conducted.
An antitumor effect on tumor was determined according to RECIST Guideline Version 1.1 (European Journal of Cancer 45 (2009) 228-247), and tumor shrinkage was evaluated by comprehensive evaluation on target lesions (lesions equal to or larger than a measurable size depending on a slice width in a diagnosis method (MRI, CT, X ray, etc.) measured at the time of enrollment) and non-target lesions (all lesions except for the target lesions).
The overall response of each case was evaluated according to the following criteria, and the best overall response was evaluated after confirmation of duration of the effect.
The best overall response was evaluated according to the following 5 levels. • CR: After reaching CR first, the CR status was maintained in examination performed after a lapse of at least 4 weeks or longer. • PR: After reaching PR first, the PR status was maintained in examination performed after a lapse of at least 4 weeks or longer. • SD: Neither CR nor PR was attained and no PD was confirmed in examination performed after a lapse of at least 6 weeks or longer from the start of administration. • PD: PD of target lesions or non-target lesions was confirmed without satisfying the criterion of CR, PR and SD, or the appearance of a new lesion was confirmed.
Proportion of cases with best overall response of CR and PR in an analyte population.
Proportion of cases with best overall response of CR, PR, Non-CR/non-PD, or SD continued for 12 weeks or longer in an analyte population.
Patients with non-small cell lung cancer, gastrointestinal stromal tumor, thymic cancer, biliary tract cancer, breast cancer, adenoid cystic cancer, pancreatic cancer, stomach cancer, ovary cancer, skin cancer, neuroblastoma, head and neck cancer, esophageal cancer, kidney cancer, colorectal cancer, sarcoma, mesothelioma, or the like entered the test.

[2] = 5 consecutive days and 2-day withdrawal period

Structure (SMILES): CCc1cc(C(N)=O)ccc1-n1nc(C(C)C)c2c(-n3cnc(-c4cnn(C)c4)c3)ccnc21 [compound 1, 3-Ethyl-4-[3-(1-methylethyl)-4-[4-(1-methyl-1H-pyrazol-4-yl)-1H-imidazol-1-yl]-1H-pyrazolo[3,4-b]pyridin-1-yl]benzamide]
- frequency of occurrence of eye disorder [1, 2]: 20%
- grade of eye disorder in all the patients [1, 2]: grade 1
- tolerability [1, 2]: good tolerability
- related adverse events observed ([1]; 5 consecutive days and 2-day withdrawal, reversible by discontinuation or decrease in dose): digestive tract disorder and elevated plasma creatinine levels
- DCR (≥12 weeks), % of patients (solid cancer patients; QD × 5, n = 18): (38.9) %
- DCR (≥12 weeks), number of patients (solid cancer patients; QD × 5, n = 18): 7
- NE, % of patients (solid cancer patients; QD × 5, n = 18): (5.6) %
- NE, number of patients (solid cancer patients; QD × 5, n = 18): 1
- PD, % of patients (solid cancer patients; QD × 5, n = 18): (44.4) %
- PD, number of patients (solid cancer patients; QD × 5, n = 18): 8
- PR, % of patients (solid cancer patients; QD × 5, n = 18): (0.0) %
- PR, number of patients (solid cancer patients; QD × 5, n = 18): 0
- RR, % of patients (solid cancer patients; QD × 5, n = 18): (0.0) %
- RR, number of patients (solid cancer patients; QD × 5, n = 18): 0
- DCR (≥12 weeks), % of patients (solid cancer patients; QD, n = 16): (31.3) %
- DCR (≥12 weeks), number of patients (solid cancer patients; QD, n = 16): 5
- NE, % of patients (solid cancer patients; QD, n = 16): (12.5) %
- NE, number of patients (solid cancer patients; QD, n = 16): 2
- PD, % of patients (solid cancer patients; QD, n = 16): (31.3) %
- PD, number of patients (solid cancer patients; QD, n = 16): 5
- PR, % of patients (solid cancer patients; QD, n = 16): (12.5) %
- PR, number of patients (solid cancer patients; QD, n = 16): 2
- RR, % of patients (solid cancer patients; QD, n = 16): (12.5) %
- RR, number of patients (solid cancer patients; QD, n = 16): 2
- DCR (≥12 weeks), % of patients (solid cancer patients; QOD, n = 26): (14.4) %
- DCR (≥12 weeks), number of patients (solid cancer patients; QOD, n = 26): 4
- NE, % of patients (solid cancer patients; QOD, n = 26): (3.8) %
- NE, number of patients (solid cancer patients; QOD, n = 26): 1
- PD, % of patients (solid cancer patients; QOD, n = 26): (57.7) %
- PD, number of patients (solid cancer patients; QOD, n = 26): 15
- PR, % of patients (solid cancer patients; QOD, n = 26): (3.8) %
- PR, number of patients (solid cancer patients; QOD, n = 26): 1
- RR, % of patients (solid cancer patients; QOD, n = 26): (3.8) %
- RR, number of patients (solid cancer patients; QOD, n = 26): 1
